Read-outs that look alike come from different tables or passages of the source.
What was measured:
[1] = biological target: T1, human vascular endothelial growth factor receptor 2 (VEGF-R2) (Homo sapiens, UniProt P35968, DEL940-989/E990V); experiment: VEGF-R2 coupled spectrophotometric assay (FLVK, unphosphorylated VEGF-R2D50); format: biochemical
T1 construct: VEGF-R2D50 contains residues 806-939 and 990-1171; made in house; host or cells: baculovirus/insect cell system
From the text: This construct determines the ability of a test compound to inhibit tyrosine kinase activity. A construct (VEGF-R2D50) of the cytosolic domain of human vascular endothelial growth factor receptor 2 (VEGF-R2) lacking the 50 central residues of the 68 residues of the kinase insert domain was expressed in a baculovirus/insect cell system. Of the 1356 residues of full-length VEGF-R2, VEGF-R2D50 contains residues 806-939 and 990-1171, and also one point mutation (E990V) within the kinase insert domain relative to wild-type VEGF-R2. Autophosphorylation of the purified construct was performed by incubation of the enzyme at a concentration of […] in the presence of 3 mM ATP and 40 mM MgCl2 in 100 mM HEPES, pH 7.5, containing 5% glycerol and 5 mM DTT, at 4° C. for 2 h. […] See Parast et al., Biochemistry, 37, 16788-16801 (1998).
VEGF-R2 Assay: Coupled Spectrophotometric (FLVK-P) Assay
The production of ADP from ATP that accompanies phosphoryl transfer was coupled to oxidation of NADH using phosphoenolpyruvate (PEP) and a system having pyruvate kinase (PK) and lactic dehydrogenase (LDH). The oxidation of NADH was monitored by following the decrease of absorbance at 340 nm (e340=6.22 cm^−1 mM^−1) using a Beckman DU 650 spectrophotometer. Assay conditions for phosphorylated VEGF-R2D50 (indicated as FLVK-P in the tables below) were the following: 1 mM PEP; […] NADH; 50 units of LDH/mL; 20 units of PK/mL; 5 mM DTT; 5.1 mM poly(E4Y1); 1 mM ATP; and 25 mM MgCl2 in 200 mM HEPES, pH 7.5. Assay conditions for unphosphorylated VEGF-R2D50 (indicated as FLVK in the tables) were the following: 1 mM PEP; […] NADH; 50 units of LDH/mL; 20 units of PK/mL; 5 mM DTT; 20 mM poly(E4Y1); 3 mM ATP; and 60 mM MgCl2 and 2 mM MnCl2 in 200 mM HEPES, pH 7.5. Assays were initiated with 5 to 40 nM of enzyme. K1 values were determined by measuring enzyme activity in the presence of varying concentrations of test compounds. The percent inhibition at 50 nM (% inhibition @ 50 nM) was determined by linear least-squares regression analysis of absorbance as a function of time. The binding inhibitions were fitted to equation as described by Morrison. The data were analyzed using Enzyme Kinetic and Kaleidagraph software.

[2] = test system: human umbilical vein endothelial cells (HUVEC); experiment: HUVEC+VEGF proliferation assay; format: cell-based; conditions: VEGF-stimulated HUVEC proliferation, MTT, 72 hours
Experimental: HUVEC+VEGF Proliferation Assay
This assay determines the ability of a test compound to inhibit the growth factor-stimulated proliferation of human umbilical vein endothelial cells (“HUVEC”). HUVEC cells (passage 3-4, Clonetics, Corp.) were thawed into EGM2 culture medium (Clonetics Corp) in T75 flasks. Fresh EGM2 medium was added to the flasks 24 hours later. Four or five days later, cells were exposed to another culture medium (F12K medium supplemented with 10% fetal bovine serum (FBS), […] endothelial cell growth supplement (ECGS), and 0.1 mg/mL heparin). Exponentially-growing HUVEC cells were used in experiments thereafter. Ten to twelve thousand HUVEC cells were plated in 96-well dishes in […] of rich, culture medium (described above). The cells were allowed to attach for 24 hours in this medium. The medium was then removed by aspiration and […] of starvation media (F12K+1% FBS) was added to each well. After 24 hours, […] of test agent dissolved in 1% DMSO in starvation medium or this vehicle alone was added into each treatment well; the final DMSO concentration was 0.1%. One hour later, […] of VEGF (30 ng/mL) in starvation media was added to all wells except those containing untreated controls; the final VEGF concentration was 6 ng/mL. Cellular proliferation was quantified 72 hours later by MTT dye reduction, at which time cells were exposed for 4 hours MTT (Promega Corp.). Dye reduction was stopped by addition of a stop solution (Promega Corp.) and absorbance at 595 nm was determined on a 96-well spectrophotometer plate reader.

[3] = biological target: T2, human FGF-R1 (Homo sapiens, UniProt P11362, C488A/C584S/L457V); experiment: FGF-R spectrophotometric assay; format: biochemical
T2 construct: starting from the endogenous methionine residue 456 to glutamate 766; made in house; host or cells: baculovirus vector expression system
T2 sequence (P11362 456-766 L457V/C488A/C584S): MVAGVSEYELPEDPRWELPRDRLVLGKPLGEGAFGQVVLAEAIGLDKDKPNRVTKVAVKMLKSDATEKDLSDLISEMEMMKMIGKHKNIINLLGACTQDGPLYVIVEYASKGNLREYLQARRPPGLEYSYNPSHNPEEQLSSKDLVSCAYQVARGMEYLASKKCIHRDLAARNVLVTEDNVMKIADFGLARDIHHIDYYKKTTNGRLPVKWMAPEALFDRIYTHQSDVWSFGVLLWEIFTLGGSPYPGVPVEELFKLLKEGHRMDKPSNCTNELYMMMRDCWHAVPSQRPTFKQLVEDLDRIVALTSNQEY
Experimental: The intracellular kinase domain of human FGF-R1 was expressed using the baculovirus vector expression system starting from the endogenous methionine residue 456 to glutamate 766, according to the residue numbering system of Mohammadi et al., Mol. Cell. Biol., 16, 977-989 (1996). In addition, the construct also has the following 3 amino acid substitutions: L457V, C488A, and C584S.
The spectrophotometric assay was carried out as described above for VEGF-R2, except for the following changes in concentration: FGF-R=50 nM, ATP=2 mM, and poly(E4Y1)=15 mM.

[4] = unphosphorylated VEGF-R2D50 (FLVK)

T1 sequence (P35968 with tags, fused parts or gaps DEL940-989/E990V limits assumed): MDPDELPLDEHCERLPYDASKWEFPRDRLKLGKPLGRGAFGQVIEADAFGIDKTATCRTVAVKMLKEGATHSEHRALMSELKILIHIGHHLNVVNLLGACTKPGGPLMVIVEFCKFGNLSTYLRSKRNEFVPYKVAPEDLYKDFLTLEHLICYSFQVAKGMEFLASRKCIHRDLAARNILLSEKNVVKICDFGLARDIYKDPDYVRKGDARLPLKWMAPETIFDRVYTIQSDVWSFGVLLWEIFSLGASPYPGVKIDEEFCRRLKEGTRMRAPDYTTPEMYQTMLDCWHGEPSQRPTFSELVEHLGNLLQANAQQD

| SMILES | Ki [1, 4] [nM] | IC50 ([2]; Homo sapiens) [nM] | also measured |
| --- | --- | --- | --- |
| CNC(=O)c1c(C)sc2cc(Oc3ccnc4cc(-c5ccccn5)ccc34)ccc12 [Example 31] | 1 to 10 |  | IC50 [2]: < 1 nM |
| CNC(=O)c1c(C)oc2cc(Oc3ccnc4cc(OCCN5CCOCC5)ccc34)ccc12 [Example 36, N,2-dimethyl-6-{[7-(2-morpholin-4-ylethoxy)quinolin-4-yl]oxy)-1-benzofuran-3-carboxamide] | 1 to 10 | < 1 |  |
| CNC(=O)c1c(C)oc2cc(Oc3ccnc4cc(OCCN(C)C)ccc34)ccc12 [Example 37, 6-({7-[2-(dimethylamino)ethoxy]quinolin-4-yl}oxy)-N,2-dimethyl-1-benzofuran-3-carboxamide] | 1 to 10 | < 1 |  |
| CNC(=O)c1c(C)oc2cc(Oc3ccnc4cc(OCCN5CCCCC5)ccc34)ccc12 [Example 38, N,2-dimethyl-6-{[7-(2-piperidin-1-ylethoxy)quinolin-4-yl]oxy}-1-benzofuran-3-carboxamide] | 1 to 10 | < 1 |  |
| CCCCNC(=O)c1c(C)oc2cc(Oc3ccnc4cc(OCCN5CCCC5)ccc34)ccc12 [Example 44, N-butyl-2-methyl-6-{[7-(2-pyrrolidin-1-ylethoxy)quinolin-4-yl]oxy}-1-benzofuran-3-carboxamide] | 1 to 10 | < 1 |  |
| CCCCNC(=O)c1c(C)oc2cc(Oc3ccnc4cc(OCCN5CCOCC5)ccc34)ccc12 [Example 45, N-butyl-2-methyl-6-{[7-(2-morpholin-4-ylethoxy)quinolin-4-yl]oxy}-1-benzofuran-3-carboxamide] | 1 to 10 | 1 to 10 |  |
| CCCCNC(=O)c1c(C)oc2cc(Oc3ccnc4cc(OCCN(C)C)ccc34)ccc12 [Example 46, N-butyl-6-({7-[2-(dimethylamino)ethoxy]quinolin-4-yl}oxy)-2-methyl-1-benzofuran-3-carboxamide] | 1 to 10 | < 1 |  |
| CCCCNC(=O)c1c(C)oc2cc(Oc3ccnc4cc(OCCN5CCCCC5)ccc34)ccc12 [Example 47, N-butyl-2-methyl-6-{[7-(2-piperidin-1-ylethoxy)quinolin-4-yl]oxy}-1-benzofuran-3-carboxamide] | 1 to 10 | < 1 |  |
| COc1ccc2c(Oc3ccc4c(C(=O)NC5CC5)c(C)sc4c3)ccnc2c1 [Example 48, N-cyclopropyl-6-[(7-methoxyquinolin-4-yl)oxy]-2-methyl-1-benzothiophene-3-carboxamide] | 1 to 10 | 1 to 10 |  |
| CCCNC(=O)c1c(C)sc2cc(Oc3ccnc4cc(OC)ccc34)ccc12 [Example 50, [(7-methoxyquinolin-4-yl)oxy]-2-methyl-N-propyl-1-benzothiophene-3-carboxamide] | 1 to 10 | 1 to 10 |  |
| COc1ccc2c(Oc3ccc4c(C(=O)NCCCN(C)C)c(C)sc4c3)ccnc2c1 [Example 51, N-[3-(dimethylamino)propyl]-6-[(7-methoxyquinolin-4-yl)oxy]-2-methyl-1-benzothiophene-3-carboxamide] | > 10 | 1 to 10 |  |
| COc1ccc2c(Oc3ccc4c(C(=O)NC5CCCCC5)c(C)sc4c3)ccnc2c1 [Example 52, N-cyclohexyl-6-[(7-methoxyquinolin-4-yl)oxy]-2-methyl-1-benzothiophene-3-carboxamide] | 1 to 10 | 1 to 10 |  |
| COc1ccc2c(Oc3ccc4c(C(=O)NC5CCCC5)c(C)sc4c3)ccnc2c1 [Example 53, N-cyclopentyl-6-[(7-methoxyquinolin-4-yl)oxy]-2-methyl-1-benzothiophene-3-carboxamide] | 1 to 10 | 1 to 10 |  |
| COc1ccc2c(Oc3ccc4c(C(=O)NCc5ccccn5)c(C)oc4c3)ccnc2c1 [Example 66, 6-[(7-methoxyquinolin-4-yl)oxy]-2-methyl-N-(pyridin-2-ylmethyl)-1-benzofuran-3-carboxamide] | > 10 | 1 to 10 |  |
| COc1ccc2c(Oc3ccc4c(C(=O)NCCCO)c(C)oc4c3)ccnc2c1 [Example 67, N-(3-hydroxypropyl)-6-[(7-methoxyquinolin-4-yl)oxy]-2-methyl-1-benzofuran-3-carboxamide] | 1 to 10 | 1 to 10 |  |
| Cc1oc2cc(Oc3ccnc4cc(OC(F)(F)F)ccc34)ccc2c1C(=O)NC1CC1 [Example 73, N-cyclopropyl-2-methyl-6-{[7-(trifluoromethoxy)quinolin-4-yl]oxy}-1-benzofuran-3-carboxamide] | 1 to 10 | 1 to 10 |  |
| COc1ccc2c(Oc3ccc4c(C(=O)NC[C@H]5CCCO5)c(C)oc4c3)ccnc2c1 [Example 84, 6-[(7-methoxyquinolin-4-yl)oxy]-2-methyl-N-[(2R)tetrahydrofuran-2-ylmethyl]-1-benzofuran-3-carboxamide] | 1 to 10 | 1 to 10 |  |
| CCOCCNC(=O)c1c(C)oc2cc(Oc3ccnc4cc(OC)ccc34)ccc12 [Example 86, 6-[(7-methoxyquinolin-4-yl)oxy]-2-methyl-N-[ethoxy-ethyl]-1-benzofuran-3-carboxamide] | 1 to 10 | 1 to 10 |  |
| COCCNC(=O)c1c(C)oc2cc(Oc3ccnc4cc(OC)ccc34)ccc12 [Example 88, N-(2-methoxyethyl)-6-[(7-methoxyquinolin-4-yl)oxy]-2-methyl-1-benzofuran-3-carboxamide] | 1 to 10 | 1 to 10 |  |
| COc1ccc2c(Oc3ccc4cc(C)oc4c3)ccnc2c1 [Example 125, 7-Methoxy-4-(2-methyl-benzofuran-6-yloxy)-quinoline] |  |  | inhibition at 1 µM [1]: 68%; inhibition at 1 µM [3]: 32% |
| Cc1cc2ccc(Oc3ccnc4cc(OCCN5CCOCC5)ccc34)cc2o1 [Example 126, 4-(2-Methyl-benzofuran-6-yloxy)-7-(2-morpholin-4-yl-ethoxy)-quinoline] | > 10 |  | Ki [1]: 32 nM; inhibition at 1 µM [3]: 38% |

— patent publication US7381824B2 (Agouron Pharmaceuticals, Inc., priority 2003, dated 2008)
